In ChEMBL document CHEMBL1201862, “PubChem BioAssay data set” (2004):
Counter-ions that a name gives are not always drawn. The source made the active and inactive calls.

What was measured:
[1] = cytotoxicity toward HT-29 cells – cell-based, CellTiter-Glo luminescence, IC50, dose response (AID 1117330); format: functional
[2] = CellTiter-Glo luminescence survival assay, SW480 colon tumor line, concentration-response curve, half-maximal inhibitory concentration (AID 1117338); format: functional
[3] = Reduced DLD-1 viability, concentration-response, CellTiter-Glo luminescence (AID 1117352); format: functional
[4] = cytotoxicity toward HCT116 cells – cell-based, CellTiter-Glo luminescence, IC50, dose response (AID 1117332); format: functional; details: HCT-116
[5] = SNU-C1 cell viability reduction, dose response, CellTiter-Glo luminescence (AID 1117323); format: functional, cell-based
[6] = cytotoxicity toward Colo320 cells – cell-based, CellTiter-Glo luminescence, IC50, dose response (AID 1117334); format: functional; details: COLO 320
[7] = RKO cell viability reduction, dose response, CellTiter-Glo luminescence (AID 1117322); format: functional
[8] = rise of 2N DNA cells, HeLa – IC50, dose response (AID 1117349); format: functional, cell-based
[9] = rise of 4N DNA cells, HeLa – IC50, dose response (AID 1117351); format: functional, cell-based
[10] = A549 cell cytotoxicity, dose response, cytotoxicity control, plate reader, cherry-pick, antagonist series (AID 743412); format: functional, cell-based
[11] = toxicity toward HepG2 liver cells – cell-based, plate reader, cherry-pick, antagonist series, cytotoxicity control, dose response (AID 743416); format: functional
[12] = blockade of melanocortin 4 receptor signaling – cell-based, plate reader, cherry pick, counter-screen for LGR2 antagonist project, dose response (AID 743444); format: functional;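 also: transfected HEK 293 cells stimulated with alpha-MSH peptide; potency of inhibitors of the alpha-MSH evoked signal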
[13] = reduced cellular PGC1a acetyl-lysine signal – cell-based, cherry-picked samples, dose response (AID 720514); format: functional;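 also: potency may reflect raised or lowered acetylation signal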
[14] = viability loss in HEK293 cells – cell-based, plate reader, cherry-picked samples, cytotoxicity control, dose response (AID 743446); format: functional
Paired box protein Pax-8 = Paired box protein Pax-8 (Homo sapiens, UniProt Q06710); test: PAX8 transcriptional activity inhibition in RMG-I – RMG-I cells, luciferase, cherry-pick, dose response (AID 687027); format: functional, cell-based;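 also: luciferase reporter driven by Pax8 target thyroperoxidase promoter measured by SteadyGlo luminescence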
Sequence of Paired box protein Pax-8 (Q06710 whole entry): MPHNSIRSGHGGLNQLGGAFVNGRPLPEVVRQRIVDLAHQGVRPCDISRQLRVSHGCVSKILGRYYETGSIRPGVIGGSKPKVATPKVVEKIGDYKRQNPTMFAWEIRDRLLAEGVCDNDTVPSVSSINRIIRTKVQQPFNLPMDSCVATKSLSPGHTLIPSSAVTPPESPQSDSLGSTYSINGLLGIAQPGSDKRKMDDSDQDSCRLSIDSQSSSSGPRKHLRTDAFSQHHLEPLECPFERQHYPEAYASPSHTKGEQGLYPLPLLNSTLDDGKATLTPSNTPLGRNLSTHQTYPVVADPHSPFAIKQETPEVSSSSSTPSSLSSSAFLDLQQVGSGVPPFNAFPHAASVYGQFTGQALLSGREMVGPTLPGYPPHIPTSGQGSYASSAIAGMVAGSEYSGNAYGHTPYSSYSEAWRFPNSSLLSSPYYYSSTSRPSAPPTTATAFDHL

[15] = blockers of bursicon-stimulated LGR2 cAMP reporter – cell-based, HEK293, CRE-luciferase reporter, cherry pick, set 2, dose response (AID 743343); format: functional;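 also: transfected cells were stimulated with diluted bursicon conditioned medium after compound addition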
[16] = microbe, parasite or virus in culture; format: functional; details: Mycobacterium tuberculosis
[17] = Luminescence Cell-Based Dose Retest to Confirm Inhibitors of Cancer Stem Cells. [Related pubchem assays (depositor defined):AID2717, AID2721]; format: functional; details: Homo sapiens
INS1 = test: INS-1E survival protection against cytokine death – cell-based, luminescence, retest, dose response (AID 449756); format: functional; details: Rattus norvegicus;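 also: cell death triggered by IL-1 beta plus TNF-alpha plus IFN-gamma mixture; protective hits raise ATP signal compared with cytokine alone wells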
[18] = A2780 cell killing – plate reader, dry powder samples, cytotoxicity control, dose response (AID 743046); format: functional, cell-based
[19] = OVCAR-3 cell viability loss – plate reader, dry powder samples, PAX8 inhibitor project, dose response (AID 743044); format: functional, cell-based
cells = format: functional, cell-based; details: HEK-CNG
[20] = DRD fibroblast viability loss – cell-based, non-viral oncogenic, luminescence, dose response (AID 1934); format: functional; details: Homo sapiens
Galanin receptor type 3 = Galanin receptor type 3 (Homo sapiens, UniProt O60755); test: Fluorescence-based cell-based primary high throughput dose response assay to identify antagonists of the Galanin Receptor 3 (GalR3).; format: functional
Sequence of Galanin receptor type 3 (O60755 whole entry): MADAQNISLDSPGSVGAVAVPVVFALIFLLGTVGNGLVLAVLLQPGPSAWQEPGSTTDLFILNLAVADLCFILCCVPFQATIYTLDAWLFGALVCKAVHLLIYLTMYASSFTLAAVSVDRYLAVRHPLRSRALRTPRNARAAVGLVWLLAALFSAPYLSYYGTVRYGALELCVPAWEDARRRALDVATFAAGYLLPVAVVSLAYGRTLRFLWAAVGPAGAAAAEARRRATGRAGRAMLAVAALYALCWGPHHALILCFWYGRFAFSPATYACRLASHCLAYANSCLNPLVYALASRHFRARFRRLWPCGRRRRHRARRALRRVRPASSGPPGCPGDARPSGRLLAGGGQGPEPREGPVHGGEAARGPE

[21] = molecular target: COUP transcription factor 2 (Homo sapiens, UniProt P24468); test: Luminescence-based cell-based high throughput dose response assay to identify inhibitors of COUP-TFII (NR2F2).; format: functional;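 also: HEK293 cells transiently cotransfected with COUP-TFII expression vector and reporter; luciferase reporter luminescence driven by COUP-TFII from the pX2-168 reporter plasmid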
Sequence of COUP transcription factor 2 (P24468 whole entry): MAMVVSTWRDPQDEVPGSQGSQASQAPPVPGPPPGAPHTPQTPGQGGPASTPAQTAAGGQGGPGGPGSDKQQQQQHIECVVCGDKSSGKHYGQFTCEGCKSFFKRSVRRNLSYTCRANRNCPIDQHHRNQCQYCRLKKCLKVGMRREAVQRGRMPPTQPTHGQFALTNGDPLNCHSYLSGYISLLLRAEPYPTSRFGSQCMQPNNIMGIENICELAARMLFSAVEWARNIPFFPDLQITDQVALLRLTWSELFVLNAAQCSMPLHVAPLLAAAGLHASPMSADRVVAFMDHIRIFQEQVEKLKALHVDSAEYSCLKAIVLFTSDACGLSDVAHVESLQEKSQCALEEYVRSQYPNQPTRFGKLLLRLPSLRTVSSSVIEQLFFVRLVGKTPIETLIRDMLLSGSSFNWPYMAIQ

BJ [22] = test: cells; format: functional, cell-based; details: Homo sapiens
BJ [23] = test: BJ-TERT fibroblast viability loss – cell-based, RAS-independent, luminescence, dose response (AID 1933); format: functional; details: Homo sapiens
BJ [24] = test: BJ-TERT-LT-ST fibroblast viability loss – cell-based, RAS-independent, luminescence, dose response (AID 1935); format: functional; details: Homo sapiens;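 also: BJ fibroblasts immortalized with TERT plus LT and ST oncogenes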

## CC=CC1=C(C(=O)O)N2C(=O)[C@@H](NC(=O)[C@H](N)c3ccc(O)cc3)[C@H]2SC1
[1]
  IC50: > 20 µM (inactive)
[2]
  IC50: > 20 µM (inactive)
[3]
  IC50: > 20 µM (inactive)
[4]
  IC50: > 20 µM (inactive)
[5]
  IC50: > 20 µM (inactive)
[6]
  IC50: > 20 µM (inactive)
[7]
  IC50: > 20 µM (inactive)

## CN1CC[C@H](c2c(O)cc(O)c3c(=O)cc(-c4ccccc4Cl)oc23)[C@H](O)C1 [ALVOCIDIB HYDROCHLORIDE]
[8]
  IC50: > 10 µM (inactive)
[9]
  IC50: > 10 µM (inactive)

## Cn1nnnc1Sc1ncnc2scc(-c3cc4ccccc4o3)c12
[10]
  AC50: 8.38 µM (active)
[11]
  AC50: 7.37 µM (active)
[12]
  AC50: 4.18 µM (active)
[13]
  AC50: 4.29 µM (active)
[14]
  AC50: 7.82 µM (active)
Paired box protein Pax-8
  AC50: 3.12 µM (active)
[15]
  AC50: 4.7 µM (active)
[16]
  CC50: 7.67 µM (active)
[17]
  AC50: 1.41 µM (active)
INS1
  AC50: 6 µM (active)

## C[C@@H]1CN([C@H](C)CO)C(=O)c2cc(NS(=O)(=O)c3ccc(Cl)cc3)ccc2O[C@@H](C)CCCCO[C@@H]1CN(C)Cc1ccc(Cl)c(Cl)c1
[18]
  AC50: 2.73 µM (active)
Paired box protein Pax-8
  AC50: 11.7 µM (active)
[19]
  AC50: 49.5 µM (active)

## COc1ccccc1N1C(C)=CC(=Cc2sc3ccccc3[n+]2C)C=C1C
cells
  EC50: > 29.9 µM (inactive)
[20]
  EC50: 6.24 µM (active)
Galanin receptor type 3
  IC50: 128 nM (active)
[21]
  IC50: 617 nM (active)
BJ [22]
  EC50: 2.54 µM (active)
BJ [23]
  EC50: 3.07 µM (inconclusive)
BJ [24]
  EC50: 3.16 µM (inconclusive)
